In the kinase profiling compilation of Christmann-Franck et al. (2016):

Key:
Experiment in all cases: split-luciferase competition binding
[1] = target: AKT1 (human) (UniProt P31749); conditions: compound 10.0 µM
[2] = target: AKT2 (human) (UniProt P31751); conditions: compound 10.0 µM
[3] = target: AKT3 (human) (UniProt Q9Y243); conditions: compound 10.0 µM
[4] = target: AURKA (human) (UniProt O14965); conditions: compound 10.0 µM
[5] = target: AURKB (human) (UniProt Q96GD4); conditions: compound 10.0 µM
[6] = target: AURKC (human) (UniProt Q9UQB9); conditions: compound 10.0 µM
[7] = target: DMPK (human) (UniProt Q09013); conditions: compound 10.0 µM
Chain of DMPK (human) (Q09013 whole entry, looked up): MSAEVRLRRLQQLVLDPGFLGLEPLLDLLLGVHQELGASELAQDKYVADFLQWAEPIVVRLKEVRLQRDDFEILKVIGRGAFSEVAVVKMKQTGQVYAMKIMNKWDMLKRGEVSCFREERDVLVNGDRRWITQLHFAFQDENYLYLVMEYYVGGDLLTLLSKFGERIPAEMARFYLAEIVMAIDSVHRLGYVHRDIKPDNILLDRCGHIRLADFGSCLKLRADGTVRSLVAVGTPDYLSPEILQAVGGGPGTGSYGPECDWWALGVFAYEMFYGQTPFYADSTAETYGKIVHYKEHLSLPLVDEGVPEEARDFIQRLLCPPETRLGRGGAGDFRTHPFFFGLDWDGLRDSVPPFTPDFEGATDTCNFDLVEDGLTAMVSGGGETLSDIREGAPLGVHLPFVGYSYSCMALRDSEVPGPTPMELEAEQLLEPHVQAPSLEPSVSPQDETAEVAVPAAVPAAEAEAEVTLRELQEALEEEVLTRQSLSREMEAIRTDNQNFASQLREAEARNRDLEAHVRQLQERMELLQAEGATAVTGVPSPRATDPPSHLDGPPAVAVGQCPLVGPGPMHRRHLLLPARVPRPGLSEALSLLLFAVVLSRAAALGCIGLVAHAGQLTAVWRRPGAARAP

[8] = target: PDPK1 (human) (UniProt O15530); conditions: compound 10.0 µM
[9] = target: PKN1 (human) (UniProt Q16512); conditions: compound 10.0 µM
[10] = system: PRKACA (mouse); conditions: compound 10.0 µM; accession and sequence are those of the human protein
[11] = target: PRKACB (human) (UniProt P22694); conditions: compound 10.0 µM
[12] = target: PRKCD (human) (UniProt Q05655); conditions: compound 10.0 µM
[13] = target: PRKCE (human) (UniProt Q02156); conditions: compound 10.0 µM
[14] = target: PRKCG (human) (UniProt P05129); conditions: compound 10.0 µM
[15] = target: PRKCH (human) (UniProt P24723); conditions: compound 10.0 µM
[16] = target: PRKCI (human) (UniProt P41743); conditions: compound 10.0 µM
[17] = target: PRKCQ (human) (UniProt Q04759); conditions: compound 10.0 µM
Chain of PRKCQ (human) (Q04759 whole entry, looked up): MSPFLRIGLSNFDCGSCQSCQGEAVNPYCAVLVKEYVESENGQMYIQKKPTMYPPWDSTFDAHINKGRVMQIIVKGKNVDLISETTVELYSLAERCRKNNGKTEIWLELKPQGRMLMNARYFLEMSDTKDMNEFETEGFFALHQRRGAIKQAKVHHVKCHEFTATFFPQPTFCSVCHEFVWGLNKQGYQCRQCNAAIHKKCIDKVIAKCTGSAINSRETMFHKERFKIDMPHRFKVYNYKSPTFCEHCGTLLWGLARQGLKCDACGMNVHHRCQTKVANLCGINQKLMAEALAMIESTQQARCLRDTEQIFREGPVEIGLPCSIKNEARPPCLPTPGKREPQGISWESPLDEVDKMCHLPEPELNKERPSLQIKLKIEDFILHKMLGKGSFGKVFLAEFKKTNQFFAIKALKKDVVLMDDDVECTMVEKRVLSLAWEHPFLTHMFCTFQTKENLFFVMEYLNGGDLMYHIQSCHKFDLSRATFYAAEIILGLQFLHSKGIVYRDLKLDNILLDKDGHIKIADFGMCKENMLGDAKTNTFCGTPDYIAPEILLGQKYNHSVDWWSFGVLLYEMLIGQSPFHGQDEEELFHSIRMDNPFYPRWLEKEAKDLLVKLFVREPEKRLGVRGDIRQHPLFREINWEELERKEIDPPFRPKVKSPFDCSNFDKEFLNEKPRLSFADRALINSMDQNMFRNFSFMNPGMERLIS

[18] = target: PRKX (human) (UniProt P51817); conditions: compound 10.0 µM
[19] = target: RPS6KA1 KD1 (human) (UniProt Q15418); conditions: compound 10.0 µM
[20] = target: RPS6KA2 KD1 (human) (UniProt Q15349); conditions: compound 10.0 µM
[21] = target: RPS6KA3 KD1 (human) (UniProt P51812); conditions: compound 10.0 µM
[22] = target: RPS6KA4 KD1 (human) (UniProt O75676); conditions: compound 10.0 µM
Chain of RPS6KA4 KD1 (human) (O75676 whole entry, looked up): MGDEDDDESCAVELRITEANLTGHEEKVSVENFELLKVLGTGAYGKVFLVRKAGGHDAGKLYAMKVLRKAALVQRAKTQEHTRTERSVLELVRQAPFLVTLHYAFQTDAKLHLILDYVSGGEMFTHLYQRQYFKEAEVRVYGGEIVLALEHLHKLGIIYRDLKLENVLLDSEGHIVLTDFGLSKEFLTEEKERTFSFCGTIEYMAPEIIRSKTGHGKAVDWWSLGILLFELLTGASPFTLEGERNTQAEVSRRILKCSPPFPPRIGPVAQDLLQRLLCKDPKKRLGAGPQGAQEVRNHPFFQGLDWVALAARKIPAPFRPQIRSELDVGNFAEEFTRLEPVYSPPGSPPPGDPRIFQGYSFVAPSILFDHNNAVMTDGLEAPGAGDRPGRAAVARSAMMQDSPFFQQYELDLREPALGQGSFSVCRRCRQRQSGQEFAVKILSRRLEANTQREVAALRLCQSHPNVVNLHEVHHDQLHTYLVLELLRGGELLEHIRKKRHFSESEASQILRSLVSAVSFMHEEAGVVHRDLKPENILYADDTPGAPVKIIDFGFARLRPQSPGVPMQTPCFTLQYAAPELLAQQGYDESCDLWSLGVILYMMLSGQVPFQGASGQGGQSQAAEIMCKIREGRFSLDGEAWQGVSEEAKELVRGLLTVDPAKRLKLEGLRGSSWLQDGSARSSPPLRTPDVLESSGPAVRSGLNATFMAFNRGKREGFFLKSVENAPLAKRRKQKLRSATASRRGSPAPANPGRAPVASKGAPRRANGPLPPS

[23] = target: RPS6KA5 KD1 (human) (UniProt O75582); conditions: compound 10.0 µM
[24] = target: RPS6KA6 KD1 (human) (UniProt Q9UK32); conditions: compound 10.0 µM
Chain of RPS6KA6 KD1 (human) (Q9UK32 whole entry, looked up): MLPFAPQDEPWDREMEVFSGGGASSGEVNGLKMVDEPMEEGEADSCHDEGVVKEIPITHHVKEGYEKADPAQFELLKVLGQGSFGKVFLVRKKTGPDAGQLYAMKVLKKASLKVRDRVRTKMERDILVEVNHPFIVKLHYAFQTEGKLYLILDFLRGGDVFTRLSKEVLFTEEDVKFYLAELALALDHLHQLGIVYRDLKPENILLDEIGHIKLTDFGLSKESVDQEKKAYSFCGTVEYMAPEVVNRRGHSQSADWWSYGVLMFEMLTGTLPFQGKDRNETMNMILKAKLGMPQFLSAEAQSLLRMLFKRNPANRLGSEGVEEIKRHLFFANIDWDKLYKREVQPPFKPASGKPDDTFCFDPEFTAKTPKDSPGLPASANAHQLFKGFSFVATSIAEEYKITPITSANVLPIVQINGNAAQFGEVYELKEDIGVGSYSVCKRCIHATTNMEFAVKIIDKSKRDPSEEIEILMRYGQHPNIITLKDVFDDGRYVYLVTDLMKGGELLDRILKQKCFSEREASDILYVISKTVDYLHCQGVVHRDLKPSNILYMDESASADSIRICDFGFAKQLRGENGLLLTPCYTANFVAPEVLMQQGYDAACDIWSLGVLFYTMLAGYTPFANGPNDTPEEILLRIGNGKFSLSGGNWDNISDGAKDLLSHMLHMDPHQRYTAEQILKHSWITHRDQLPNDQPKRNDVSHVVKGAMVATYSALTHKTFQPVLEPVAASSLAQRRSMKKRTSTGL

[25] = target: SGK2 (human) (UniProt Q9HBY8); conditions: compound 10.0 µM
[26] = target: SGK3 (human) (UniProt Q96BR1); conditions: compound 10.0 µM
Chain of SGK3 (human) (Q96BR1 whole entry, looked up): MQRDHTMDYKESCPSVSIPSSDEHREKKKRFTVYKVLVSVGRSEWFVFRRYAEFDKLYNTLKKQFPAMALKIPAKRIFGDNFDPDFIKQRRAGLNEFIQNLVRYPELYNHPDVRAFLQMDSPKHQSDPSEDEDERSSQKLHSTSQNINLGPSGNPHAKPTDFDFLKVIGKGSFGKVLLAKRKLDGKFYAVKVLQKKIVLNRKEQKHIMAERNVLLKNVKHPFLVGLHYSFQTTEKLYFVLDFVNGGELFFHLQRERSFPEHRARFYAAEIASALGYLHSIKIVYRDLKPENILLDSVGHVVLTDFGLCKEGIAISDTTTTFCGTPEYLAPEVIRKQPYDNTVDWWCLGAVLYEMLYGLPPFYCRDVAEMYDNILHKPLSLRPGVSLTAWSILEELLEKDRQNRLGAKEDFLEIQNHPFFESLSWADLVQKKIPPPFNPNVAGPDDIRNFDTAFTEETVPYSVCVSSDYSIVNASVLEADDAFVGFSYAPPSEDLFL

[27] = target: STK32B (human) (UniProt Q9NY57); conditions: compound 10.0 µM
Chain of STK32B (human) (Q9NY57 whole entry, looked up): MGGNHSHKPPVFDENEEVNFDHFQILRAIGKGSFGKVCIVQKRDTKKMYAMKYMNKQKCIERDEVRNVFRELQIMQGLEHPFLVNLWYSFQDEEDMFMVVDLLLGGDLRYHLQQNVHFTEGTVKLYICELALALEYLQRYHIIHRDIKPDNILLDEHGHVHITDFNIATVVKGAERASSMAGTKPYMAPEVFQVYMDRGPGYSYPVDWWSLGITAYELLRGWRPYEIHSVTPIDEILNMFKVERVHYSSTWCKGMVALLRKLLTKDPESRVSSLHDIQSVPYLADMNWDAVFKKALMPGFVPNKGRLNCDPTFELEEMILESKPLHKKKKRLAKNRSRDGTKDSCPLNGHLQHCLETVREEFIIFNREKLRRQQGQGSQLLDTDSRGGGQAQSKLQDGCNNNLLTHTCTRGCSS

Chain of AKT1 (human) (P31749 whole entry, looked up): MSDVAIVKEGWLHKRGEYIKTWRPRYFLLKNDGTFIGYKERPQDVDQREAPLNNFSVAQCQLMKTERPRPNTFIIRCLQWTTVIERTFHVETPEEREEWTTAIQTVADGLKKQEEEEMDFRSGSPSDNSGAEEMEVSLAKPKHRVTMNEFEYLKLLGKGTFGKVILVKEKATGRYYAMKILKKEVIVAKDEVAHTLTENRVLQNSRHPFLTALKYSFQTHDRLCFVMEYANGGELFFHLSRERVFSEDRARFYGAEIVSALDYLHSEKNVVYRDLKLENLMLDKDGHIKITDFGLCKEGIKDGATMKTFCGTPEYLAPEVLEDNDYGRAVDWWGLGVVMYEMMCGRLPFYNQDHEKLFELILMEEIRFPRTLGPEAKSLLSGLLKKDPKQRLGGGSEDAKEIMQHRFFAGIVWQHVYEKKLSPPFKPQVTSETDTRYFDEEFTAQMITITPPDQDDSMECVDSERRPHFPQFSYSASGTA

Question: With `CC1=C(O)C(=O)[C@@H]2OC2C1=O` (stereo partly specified) as the compound, how does the inhibition [1] read?
Answer: 0%

Question: And the inhibition [2]?
Answer: 0%

Question: And the inhibition [3]?
Answer: 0%

Question: What about the inhibition [4] of the same compound?
Answer: 0%

Question: And the inhibition [5]?
Answer: 0%

Question: And the inhibition [6]?
Answer: 0%

Question: And the inhibition [7]?
Answer: 0%

Question: And the inhibition [8]?
Answer: 2%

Question: And the inhibition [9]?
Answer: 0%

Question: And the inhibition [10]?
Answer: 0%

Question: What about the inhibition [11] of the same compound?
Answer: 0%

Question: What about the inhibition [12] of the same compound?
Answer: 0%

Question: What about the inhibition [13] of the same compound?
Answer: 0%

Question: And the inhibition [14]?
Answer: 0%

Question: And the inhibition [15]?
Answer: 7%

Question: And the inhibition [16]?
Answer: 0%

Question: And the inhibition [17]?
Answer: 0%

Question: And the inhibition [18]?
Answer: 0%

Question: What about the inhibition [19] of the same compound?
Answer: 5%

Question: And the inhibition [20]?
Answer: 0%

Question: What about the inhibition [21] of the same compound?
Answer: 0%

Question: And the inhibition [22]?
Answer: 0%

Question: What about the inhibition [23] of the same compound?
Answer: 2%

Question: And the inhibition [24]?
Answer: 5%

Question: What about the inhibition [25] of the same compound?
Answer: 0%

Question: What about the inhibition [26] of the same compound?
Answer: 1%

Question: And the inhibition [27]?
Answer: 36%

Question: With `O=C(NC(NC(=S)Nc1ccc(F)c([N+](=O)[O-])c1)C(Cl)(Cl)Cl)C(c1ccccc1)c1ccccc1` (stereo unspecified) as the compound, how does the inhibition [1] read?
Answer: 5%

Question: And the inhibition [2]?
Answer: 0%

Question: What about the inhibition [3] of the same compound?
Answer: 0%

Question: And the inhibition [4]?
Answer: 0%

Question: And the inhibition [5]?
Answer: 0%

Question: And the inhibition [6]?
Answer: 3%

Question: And the inhibition [7]?
Answer: 0%

Question: What about the inhibition [8] of the same compound?
Answer: 0%

Question: What about the inhibition [9] of the same compound?
Answer: 0%

Question: What about the inhibition [10] of the same compound?
Answer: 0%

Question: And the inhibition [11]?
Answer: 7%

Question: What about the inhibition [12] of the same compound?
Answer: 0%

Question: What about the inhibition [13] of the same compound?
Answer: 16%

Question: And the inhibition [14]?
Answer: 15%

Question: What about the inhibition [15] of the same compound?
Answer: 7%

Question: And the inhibition [16]?
Answer: 0%

Question: What about the inhibition [17] of the same compound?
Answer: 0%

Question: And the inhibition [18]?
Answer: 4%

Question: What about the inhibition [19] of the same compound?
Answer: 2%

Question: What about the inhibition [20] of the same compound?
Answer: 2%

Question: And the inhibition [21]?
Answer: 0%

Question: And the inhibition [22]?
Answer: 0%

Question: And the inhibition [23]?
Answer: 2%

Question: What about the inhibition [24] of the same compound?
Answer: 4%

Question: What about the inhibition [25] of the same compound?
Answer: 3%

Question: And the inhibition [26]?
Answer: 0%

Question: What about the inhibition [27] of the same compound?
Answer: 8%

Question: How did the inhibition [1] turn out when `Cc1ccc(NC(=O)c2cccc(N(C)C)c2)cc1NC(=O)c1ccc(O)cc1` was run?
Answer: 0%

Question: And the inhibition [2]?
Answer: 0%

Question: What about the inhibition [3] of the same compound?
Answer: 0%

Question: What about the inhibition [4] of the same compound?
Answer: 3%

Question: And the inhibition [5]?
Answer: 0%

Question: And the inhibition [6]?
Answer: 8%

Question: What about the inhibition [7] of the same compound?
Answer: 0%

Question: And the inhibition [8]?
Answer: 0%

Question: And the inhibition [9]?
Answer: 0%

Question: And the inhibition [10]?
Answer: 7%

Question: And the inhibition [11]?
Answer: 0%

Question: And the inhibition [12]?
Answer: 1%

Question: What about the inhibition [13] of the same compound?
Answer: 0%

Question: And the inhibition [14]?
Answer: 0%

Question: What about the inhibition [15] of the same compound?
Answer: 0%

Question: What about the inhibition [16] of the same compound?
Answer: 0%

Question: What about the inhibition [17] of the same compound?
Answer: 0%

Question: And the inhibition [18]?
Answer: 0%

Question: What about the inhibition [19] of the same compound?
Answer: 0%

Question: And the inhibition [20]?
Answer: 0%

Question: And the inhibition [21]?
Answer: 0%

Question: What about the inhibition [22] of the same compound?
Answer: 0%

Question: What about the inhibition [23] of the same compound?
Answer: 0%

Question: And the inhibition [24]?
Answer: 0%

Question: What about the inhibition [25] of the same compound?
Answer: 0%

Question: What about the inhibition [26] of the same compound?
Answer: 0%

Question: What about the inhibition [27] of the same compound?
Answer: 0%
